Data reported in patent US12336986B2, “Treatment and prevention of ocular neurodegenerative disorder” (The Jackson Laboratory, priority 2015, dated 2025).

What was measured:
zebrafish = settings: two-photon-laser axotomy; cited from earlier work
sciatic nerve axons = settings: blocking NAMPT; cited from earlier work
D2 mice = settings: topical administration; cited from earlier work
PQQ tolerability in mice = type: in vivo, mouse
[1] = system: ganglion cell layer cells (GCL cells); assay: Whole retina explant culture (axotomy culture model), DAPI nuclei; type: cell-based, mouse
From the text: Mice were euthanized, eyes enucleated and placed immediately into ice-cold HBSS. Retinas were dissected from the eyes in HBSS on ice, flat-mounted with the ganglion cell layer up on a cell culture insert (Millipore), and submerged in tissue culture media containing Neurobasal-A, 1% penicillin-streptomycin (10000 U/mL), 1% glutamine (100×), 1% N-2 (100×) and 1% B-27 (50×) (all ThermoFisher Scientific).
For drug treated retinas tissue culture media was made as above and supplemented with one of the following compounds (all Sigma unless otherwise): β-NAD, NAM (PanReac AppliChem), β-NMN. Retinas were incubated in 6-well plates at 37° C. and 4% CO2 for 5 days before being fixed in 4% PFA and stained with DAPI. (For untreated “Day 0” controls, retinas were dissected and placed straight into 4% PFA.) Retinas were imaged on a Zeiss AxioObserver.

dorsal root ganglion = settings: U.S. Pat. No. 7,776,326; cited from earlier work
[2] = survey of 6000 patients on high doses; cited from earlier work
[3] = axotomized retinas in culture, 5 days

O=C(/C=C/c1cccnc1)NCCCCC1CCN(C(=O)c2ccccc2)CC1 [FK866]
axon degeneration (zebrafish): potently delayed axon degeneration
axon degeneration following axonal injury (sciatic nerve axons): potentially inhibits this axon degeneration

CC(C)OC(=O)CCC/C=C\C[C@@H]1[C@@H](CC[C@@H](O)CCc2ccccc2)[C@H](O)C[C@@H]1O [Latanoprost]
IOP (D2 mice): lowers IOP
risk of developing neurodegeneration (D2 mice): reduces the risk of developing neurodegeneration

O=C(O)c1cc(C(=O)O)c2c(n1)C(=O)C(=O)c1cc(C(=O)O)[nH]c1-2 [PQQ, pyrroloquinoline quinone]
tolerated dose (PQQ tolerability in mice): ≥ 2,000 mg/kg/day
nuclear diameter shrinkage (DAPI-labeled nuclei) ([1]; axotomized D2 retinas in culture, 5 days post-axotomy, NAM 100 mM and 500 mM): prevents
ganglion cell layer cell death / cell density [1, 3]: prevents
protective effect in retina tissue culture [1, 3]: protective in retina tissue culture

CC12CC3CC(C)(C1)CC(N)(C3)C2 [memantine]
IOP (D2 mice): lowers IOP
risk of developing neurodegeneration (D2 mice): reduces the risk of developing neurodegeneration

O=C(O)c1cccnc1 [nicotinic acid]
axonal degeneration after axotomy (dorsal root ganglion): did not work to diminish axonal degeneration
cases of jaundice reported [2]: 3

CC(C)(C)NC[C@H](O)COc1nsnc1N1CCOCC1 [timolol]
IOP (D2 mice): lowers IOP
risk of developing neurodegeneration (D2 mice): reduces the risk of developing neurodegeneration

NC(=O)c1ccc[n+]([C@@H]2O[C@H](COP(=O)([O-])O)[C@@H](O)[C@H]2O)c1 [β-NMN, nicotinamide mononucleotide]
protective effect in retina tissue culture [1, 3]: significant protective effects
